Like-named read-outs stand apart in the source and are kept apart here.
Key:
[1] = system: Human CD34+ Hematopoietic stem cells; experiment: Human CD34+ hematopoietic stem cell proliferation inhibition experiment; type: cell-based; details: 168 h, inhibitory activity against the proliferation of CD34+ hematopoietic stem cells, 7 days
Protocol: Human CD34+ Hematopoietic stem cells (TPCS, Cat.hmPB34-P-2CW) are CD34-positive stem cells obtained from human PBMCs through immunomagnetic bead sorting. The culture conditions are as follows: DPBS (Gibco, Cat.14190-144) +StemSpan SFEM II ([…], Cat.9655) +1X StemSpan CD34+ Expansion Supplement ([…], Cat.2691). First, 40 nL of DMSO, the positive reference compound Talazoparib, or the test compounds were respectively added to a 384-well plate (Corning, Cat. 3764). Then, a cell suspension was added at 400 cells per well in 40 µL of medium, resulting in final concentrations of 0.1% DMSO, 3 µM Talazoparib, or various concentrations of the compounds in each well. The plate was centrifuged at room temperature at 1000 rpm for 1 minute, followed by incubation for 7 days in a 37°C, 5% CO2 incubator. Following incubation, 20 µL of CellTiter-Glo Reagent (Promega, Cat. G7573) was directly added to each well, and the plate was centrifuged at room temperature at 1000 rpm for 1 minute, followed by incubation for 20 minutes in the dark. Following incubation, the chemiluminescent signal (CFU) was read and recorded using an Envision multimode microplate reader (PerkinElmer, Cat. 2104). The cell proliferation inhibition rate at various compound concentrations was calculated according to Equation (3), where CFUhigh control represents the average signal value of the DMSO group, CFUlow control represents the average signal value of the Talazoparib group, and CFUcompound represents the average signal value of the compound-treated group. The processed data obtained from Equation (3) were analysed using XLfit or GraphPad Prism software, and a four-parameter curve fitting model was applied to calculate the compound concentration corresponding to a 50% inhibition rate, i.e., the IC50 value. Inhibition% = (CFUhigh control−CFUcompound)/(CFUhigh control−CFUlow control) × 100% [formula]

AR protein = biological target: T1, AR protein (Homo sapiens, UniProt P10275); experiment: Detection of AR degradation in VCaP cells (automated western blot); type: cell-based; details: degradation of AR protein in VCaP cells, 24 hours incubation
T1 construct: VCap is a human prostate cancer cell line purchased from ATCC; host or cells: VCaP human prostate cancer cells
T1 sequence (P10275 1-920): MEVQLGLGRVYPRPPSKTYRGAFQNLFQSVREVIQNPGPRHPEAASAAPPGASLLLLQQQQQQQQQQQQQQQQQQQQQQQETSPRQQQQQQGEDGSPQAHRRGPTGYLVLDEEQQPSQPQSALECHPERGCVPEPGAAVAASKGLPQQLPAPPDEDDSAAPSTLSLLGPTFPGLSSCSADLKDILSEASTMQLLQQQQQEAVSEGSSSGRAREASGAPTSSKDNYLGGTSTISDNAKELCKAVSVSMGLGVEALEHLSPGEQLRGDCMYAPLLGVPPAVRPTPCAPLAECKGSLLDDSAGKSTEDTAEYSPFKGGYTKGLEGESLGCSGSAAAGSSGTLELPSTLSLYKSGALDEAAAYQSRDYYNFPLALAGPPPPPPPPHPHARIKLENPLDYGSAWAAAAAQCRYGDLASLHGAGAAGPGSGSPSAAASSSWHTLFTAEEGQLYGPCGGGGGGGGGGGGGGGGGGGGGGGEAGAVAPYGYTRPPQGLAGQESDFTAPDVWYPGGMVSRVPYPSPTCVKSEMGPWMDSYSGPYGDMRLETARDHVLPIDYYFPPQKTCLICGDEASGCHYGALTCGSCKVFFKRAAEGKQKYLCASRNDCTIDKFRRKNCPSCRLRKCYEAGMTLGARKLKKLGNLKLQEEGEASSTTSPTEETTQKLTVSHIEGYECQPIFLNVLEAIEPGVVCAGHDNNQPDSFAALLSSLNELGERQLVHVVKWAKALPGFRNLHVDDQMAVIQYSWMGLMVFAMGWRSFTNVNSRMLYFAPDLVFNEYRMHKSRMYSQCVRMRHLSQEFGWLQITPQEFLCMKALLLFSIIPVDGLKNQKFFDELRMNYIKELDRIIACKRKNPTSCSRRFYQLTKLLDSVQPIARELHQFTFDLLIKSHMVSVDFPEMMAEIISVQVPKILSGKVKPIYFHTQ
Summary of the method: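 VCaP cells (5 × 10^5/well) were treated with compounds at various concentrations for 24 h at 37°C. Lysate AR level was quantified by automated capillary western blot, normalised to β-actin and expressed relative to solvent control. DC50 came from four-parameter nonlinear regression; degradation rate = 100 − AR%.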

VCaP cells = experiment: VCaP cell proliferation inhibition experiment (CellTiter-Glo); type: cell-based; details: Homo sapiens, 168 h
Protocol: After centrifugation and resuspension, viable cell counting was performed using a Vi-Cell XR cell counter. […] Then, 180 µl of the cell suspension was added per well to a 96-well cell culture plate at a cell density of 7,500 cells/well. At the time of seeding, T0 wells were also prepared. The following day, R1881 at a final concentration of 0.1 nM and compounds at various concentrations were added. The plate was placed back into the incubator and cultured for an additional 7 days. At the time of compound addition, the T0 plate was measured using the CellTiter-Glo (CTG) kit (Promega, Cat. No. G7572) and recorded as RLU0. Following incubation, 75 µl of pre-thawed and room temperature-equilibrated CellTiter-Glo solution was added to each well. […] The results were processed according to Equation (2). […] Growth% = (RLUcompound−RLU0)/(RLUcontrol−RLU0) × 100% [formula]

[2] = Pharmacokinetic test in rats; type: in vivo, SD rats; details: i.g. (5 mg/kg), vehicle 5% DMSO+5% Solutol+90% (20% SBE-β-CD); for AUC(0-t): rat, plasma, po
Protocol: (§1) Experimental objective: In this experiment, a single dose of the test compound was administered to SD rats via intravenous administration and intragastric gavage, and the concentration of the test compound in plasma of the rats was measured to evaluate the pharmacokinetic profile of the test compound in the rats.
Experimental animals: Male SD rats, 200-220 g, 6 rats/compound, purchased from Chengdu Ddossy Experimental Animals Co., Ltd.
(§2) Experimental method: On the day of the experiment, 6 SD rats were randomly grouped according to their body weights. The animals were fasted with water available for 12 to 14 h one day before the administration, and were fed 4 h after the administration. Table 3 Administration information of pharmacokinetic test in rats
Sampling: Before and after the administration, 0.1 mL of blood was taken from the orbits under isoflurane anaesthesia, and placed in an EDTAK2 centrifuge tube. Centrifugation was carried out at 5000 rpm at 4°C for 10 min, and the plasma was collected.
The plasma collection time points for IV&PO groups were 0, 5 min, 15 min, 30 min, 1 h, 2 h, 4 h, 7 h, 24 h, and 48 h.
Before analysis and detection, all samples were stored at -60°C. The samples were analysed quantitatively by LC-MS/MS. Table 4 Pharmacokinetic parameters of compounds of the present invention in plasma of rats

[3] = Pharmacokinetic test in mice; type: in vivo, ICR mice; details: i.g. (5 mg/kg), Vehicle 3: 5% DMSO+5% Solutol+90% (20% SBE-β-CD); for AUC(0-t): mouse, plasma, po
Protocol: as §1, with “ICR mice” for “SD rats”, “mice” for “rats”, “mice.” for “rats.”
Experimental animals: Male ICR mice, 6 mice/compound, purchased from Chengdu Ddossy Experimental Animals Co., Ltd.
as §2, with “[…]” for “rats”, “6” for “3”
Sampling: Before and after the administration, 0.15 mL of blood was taken from the orbits under isoflurane anaesthesia, and placed in an EDTAK2 centrifuge tube. Centrifugation was carried out at 5000 rpm at 4°C for 10 min, and the plasma was collected.
The plasma collection time points for PO groups were 0, 5 min, 15 min, 30 min, 1 h, 2 h, 4 h, 7 h, 24 h, and 48 h.
The plasma collection time points for IV groups were 0, 5 min, 15 min, 30 min, 1 h, 2 h, 4 h, 7 h, 24 h, and 48 h.
Before analysis and detection, all samples were stored at -60°C. The samples were analysed quantitatively by LC-MS/MS. Table 7 Pharmacokinetic parameters of compounds of the present invention in plasma of mice

hERG potassium channel = biological target: T2, hERG potassium channel (Homo sapiens, UniProt Q12809); experiment: hERG potassium ion channel test (manual patch-clamp, CHO cells); type: cell-based; details: chinese hamster; inhibitory activity against hERG potassium channel current, CHO cells, whole cell patch-clamp; read-out: IC50
T2 construct: expressed in transfected cells; host or cells: CHO cells stably expressing hERG
From the text: Experimental platform: Electrophysiological manual patch-clamp system
Cell line: Chinese hamster ovary (CHO) cell lines stably expressing hERG potassium ion channel
Experimental method: In Chinese Hamster Ovary (CHO) cells stably expressing hERG potassium channel, whole cell patch-clamp technique was used to record hERG potassium channel current at room temperature. The glass microelectrode was made of a glass electrode blank (BF150-86-10, Sutter) by a puller. The tip resistance after filling the liquid in the electrode was about 2-5 MΩ. The glass microelectrode can be connected to the patch-clamp amplifier by inserting the glass microelectrode into an amplifier probe. The clamping voltage and data recording were controlled and recorded by the pClamp 10 software through a computer. The sampling frequency was 10 kHz, and the filtering frequency was 2 kHz. After the whole cell records were obtained, the cells were clamped at -80 mV, and the step voltage that induced the hERG potassium current (I hERG) was depolarised from -80 mV to +20 mV for 2 s, then repolarised to -50 mV, and returned to -80 mV after 1 s. This voltage stimulation was given every 10 s, and the administration process was started after the hERG potassium current was confirmed to be stable (at least 1 minute). The compound was administered for at least 1 minute at each test concentration, and at least 2 cells (n ≥ 2) were tested at each concentration.
Data processing: Data analysis processing was carried out by using pClamp 10, GraphPad Prism 5 and Excel software.
Compound IC50 was calculated using GraphPad Prism 5 software by fitting according to the following equation: Y = Bottom + (Top−Bottom)/(1+10^(∧)((LogIC50−X)*HillSlope)) [formula] where X represents the Log value of the tested concentration of the test sample, Y represents the inhibition percentage at the corresponding concentration, and Bottom and Top represent the minimum and maximum inhibition percentage, respectively.

T2 sequence (Q12809 whole entry): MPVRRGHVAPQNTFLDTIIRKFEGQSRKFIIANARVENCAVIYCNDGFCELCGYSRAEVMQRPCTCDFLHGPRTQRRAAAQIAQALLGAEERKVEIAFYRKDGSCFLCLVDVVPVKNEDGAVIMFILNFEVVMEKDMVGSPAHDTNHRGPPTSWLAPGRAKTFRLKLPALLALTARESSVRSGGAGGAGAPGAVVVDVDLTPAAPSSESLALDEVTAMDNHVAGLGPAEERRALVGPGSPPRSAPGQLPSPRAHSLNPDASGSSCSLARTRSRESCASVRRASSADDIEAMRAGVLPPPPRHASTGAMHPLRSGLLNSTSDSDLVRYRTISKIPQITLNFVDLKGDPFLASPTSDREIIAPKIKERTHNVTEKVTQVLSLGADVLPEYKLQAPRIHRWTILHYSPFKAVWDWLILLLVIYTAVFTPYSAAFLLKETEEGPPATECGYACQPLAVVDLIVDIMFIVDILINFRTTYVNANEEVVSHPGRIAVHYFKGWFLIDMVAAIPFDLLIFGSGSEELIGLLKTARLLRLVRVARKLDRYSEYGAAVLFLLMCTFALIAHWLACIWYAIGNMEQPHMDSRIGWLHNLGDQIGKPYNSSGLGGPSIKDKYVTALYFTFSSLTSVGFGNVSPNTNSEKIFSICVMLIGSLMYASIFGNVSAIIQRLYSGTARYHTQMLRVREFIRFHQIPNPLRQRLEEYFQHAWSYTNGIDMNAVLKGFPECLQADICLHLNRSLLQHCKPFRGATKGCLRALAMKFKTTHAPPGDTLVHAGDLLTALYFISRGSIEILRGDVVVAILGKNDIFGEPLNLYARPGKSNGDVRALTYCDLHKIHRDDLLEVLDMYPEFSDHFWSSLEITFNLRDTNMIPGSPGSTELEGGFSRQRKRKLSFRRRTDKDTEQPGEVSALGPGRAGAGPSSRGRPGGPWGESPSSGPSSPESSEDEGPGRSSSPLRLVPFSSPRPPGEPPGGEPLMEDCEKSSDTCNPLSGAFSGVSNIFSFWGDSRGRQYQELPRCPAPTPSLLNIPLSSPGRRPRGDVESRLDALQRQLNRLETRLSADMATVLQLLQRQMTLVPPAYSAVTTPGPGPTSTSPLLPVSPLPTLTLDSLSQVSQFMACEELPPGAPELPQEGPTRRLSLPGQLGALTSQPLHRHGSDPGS

## COc1cc(O[C@H]2C(C)(C)[C@H](NC(=O)c3ccc(N4CCC5(CC4)CC(CN4CCN6c7cc(F)c(C(=O)N[C@H]8CCC(=O)NC8=O)cc7CC[C@H]6C4)C5)cc3)C2(C)C)ccc1C#N [Trifluoroacetate of compound 7]
[1]
  IC50: > 10000 nM
AR protein; read-out: DC50
  DC50: < 100 nM

## COc1cc(O[C@H]2C(C)(C)[C@H](NC(=O)c3ccc(N4CCC(CN5CCN6c7cc(F)c(C8CCC(=O)NC8=O)cc7CC[C@H]6C5)CC4)nn3)C2(C)C)ccc1C#N (stereo partly drawn) [Trifluoroacetate of compound 61]
VCaP cells
  GI50: < 300 nM
AR protein; read-out: DC50
  DC50: < 100 nM
[2]
  F: 43.5+14%
  AUC(0-t): 5460 ng·h/mL
[3]
  F: 98.8±12%
  AUC(0-t): 28500 ± 3460 ng·h/mL

## COc1cc(O[C@H]2C(C)(C)[C@H](NC(=O)c3ccc(N4CCC(CN5CCN6c7cc(F)c(C8CCC(=O)NC8=O)cc7CC[C@@H]6C5)CC4)nn3)C2(C)C)ccc1C#N (stereo partly drawn) [Trifluoroacetate of compound 60]
VCaP cells
  GI50: < 300 nM
AR protein
  DC50: < 100 nM
[2]
  F: 57.5±3.0%
  AUC(0-t): 6600 ± 349 ng·h/mL
[3]
  F: 84.2±8.4%
  AUC(0-t): 41600 ± 4140 ng·h/mL

## COc1cc(O[C@H]2C(C)(C)[C@H](NC(=O)c3ccc(N4CCC(CN5CCN6c7cc(F)c(C(=O)N[C@H]8CCC(=O)NC8=O)cc7CC[C@@H]6C5)CC4)cc3)C2(C)C)ccc1C#N [Compound 11]
[1]
  IC50: > 10000 nM
VCaP cells
  GI50: < 300 nM
AR protein; read-out: DC50
  DC50: < 100 nM
hERG potassium channel
  IC50: > 40000 nM

Reference: patent EP4763845A1, “CYANO AROMATIC RING DERIVATIVE AND PHARMACEUTICAL USE THEREOF” (Haisco Pharmaceutical Group Co., Ltd., priority 2023, dated 2025)
